US20090181931A1, “ANTIVIRAL ACTIVITY OF CIDOFOVIR AGAINST ONCOLYTIC VIRUSES” (priority 2008, published 2009)
Where “and” joins values, the source holds several entries; their conditions need not be identical. Equal values may be shown once.

Tests used:
Telomelysin (OBP-301) = experiment: XTT assay, protection from cytopathic effect of Telomelysin in A549 cells; assay type: cell-based, adenovirus; conditions: for Protection (%) Ave. / Protection (%): Telomelysin MOI 5, A549, 7 days; for Protection (%): single wells, dihydrate
Method: (§1) Cells frozen in liquid nitrogen were thawed in water bath at 37° C., seeded at T25 flask, and cultured at 70-90% sub-confluent monolayer. Cells were detached with trypsin, and prepared suspension at a concentration of 1.0×10^4 cells/ml.
(§2) Cells were seeded in 96 well-plate (100 μL/well, 1000 cells/well), then cultured with 5% CO2 at 37° C.
(§3) Viruses were diluted at MOI of 1 (OBP-301, OBP-202) in H1299 and 5 in A549 (PFU/cell). Medium in each well was removed, 150 μL of diluted virus solution was added to each well of the plate. 2 hours later, medium was aspirated and replaced with fresh medium containing 2% FCS and serially diluted CDV. Cells were incubated with 5% CO2 at 37° C. for 7 days after infection.
(§4) 100 μL of PBS, 50 μL of XTT labeling reagent, and 1 μL of ion coupling reagent per well of plate were mixed.
Medium in each well of plate was removed, and 150 μL of mixture prepared above was added to each well. Plate was incubated with 5% CO2 at 37° C. for 4 hours, and then calculated absorbance at 450 nm and 690 nm. Protection was determined by the formula below:
Protection(%)={OD(AdV(+):CDV(+))−OD(AdV(+):CDV(−))}/{OD(AdV(−):CDV(+))−OD(AdV(+):CDV(−))}×100.

H1299 cells = experiment: XTT cell viability assay, CDV alone, H1299 cells; assay type: cell-based; conditions: for Relative cell viability Ave. / Relative cell viability: H1299, no virus, 7 days; for Relative cell viability: single wells, dihydrate
Method: as §1, §2, §3
as §3, with “0.1 (OBP-401) or 10 (ONYX-015)” for “1 (OBP-301, OBP-202)”, “H1299.” for “H1299 and 5 in A549 (PFU/cell).”, “50” for “150”
as §4
Medium in each well of plate was removed, and 150 μL of mixture prepared above was added to each well. Plate was incubated with 5% CO2 at 37° C. for 4 hours, and then calculated absorbance at 450 nm and 690 nm. Protection was determined by the formula below: […]

[1] = system: Wild-type adenovirus (OBP-202); experiment: Real-time quantitative PCR, viral E1A copy number, wild-type adenovirus in H1299 cells; assay type: cell-based; conditions: for E1A copy number, % (relative to 0 μM) / E1A copy number/ng DNA: Wt-Ad MOI 10, H1299, 24 hours
Method: Cells were seeded in 6-well plate (2 mL/well, 2×10^5 cells/well), and incubated with 5% CO2 at 37° C.
Viruses were diluted at a MOI of 10. Medium in each well was removed, 500 μL of diluted virus solution was added to each well of the plate. Plates were incubated with 5% CO2 at 37° C. for 2 hours with gently shaking every 15 minutes. Medium was aspirated, washed with PBS twice, and replaced with fresh medium containing 2% FCS and serially diluted CDV. Cells were incubated with 5% CO2 at 37° C. for 24 hours after infection.
Cells were detached with Trypsin-EDTA, and collected by centrifuging. Total DNA was extracted using QIAamp™ DNA Mini Kit according to manufacture's instructions with some modifications: addition of 20 μL of RNaseA in each sample when adding ProK. DNA was eluted by 50˜100 μL of D. W.
Concentration of DNA was determined by measuring O.D.260. Each DNA samples was diluted by D. W. at a concentration of 5 ng/μL.
Master-mix for E1A primer was prepared using LightCycler™ Faststart DNAMaster SYBR Green™ according to Table 1. Standard DNA was prepared by serially 10 times dilution of pCRII-E1A plasmid (1×10^9, 1×10^8, 1×10^7, 1×10^6, 1×10^5, 1×10^4, and 1×10^3 copies/μL). 2 μL of Sample or Standard DNA was and 18 μL of Master mix were added into capillaries (total volume was 20 μL per capillary).
Q-PCR was performed according to the program of Table 2 (LightCycler quicksystem 350S). Results obtained here were analyzed using LightCycler softwere.

## Nc1ccn(C[C@@H](CO)OCP(=O)(O)O)c(=O)n1.O.O [CDV, 1-[(S)-3-hydroxy-2-(phosphonomethoxy)propyl]cytosine dihydrate]
Telomelysin (OBP-301); A549 cells, FIG. 1A
  Telomelysin-mediated cytopathic effect: apparently inhibited
Telomelysin (OBP-301); CDV 10 μM
  Protection (%) Ave.: 1.376%
  Protection (%): 1.991% and 0.387% and 1.136%
Telomelysin (OBP-301); CDV 20 μM
  Protection (%) Ave.: 7.535%
  Protection (%): 7.548% and 4.342% and 7.388% and 10.862%
Telomelysin (OBP-301); CDV 30 μM
  Protection (%) Ave.: 40.094%
  Protection (%): 41.269% and 33.413% and 44.208% and 41.483%
Telomelysin (OBP-301); CDV 40 μM
  Protection (%) Ave.: 56.713%
  Protection (%): 61.951% and 52.118% and 53.881% and 58.904%
Telomelysin (OBP-301); CDV 50 μM
  Protection (%) Ave.: 61.202%
  Protection (%): 69.539% and 54.148% and 62.592% and 58.530%
Telomelysin (OBP-301); CDV 60 μM
  Protection (%) Ave.: 67.295%
  Protection (%): 68.310% and 63.768% and 66.440% and 70.661%
Telomelysin (OBP-301); CDV 70 μM
  Protection (%) Ave.: 62.538%
  Protection (%): 66.226% and 58.424% and 61.844% and 63.661%
Telomelysin (OBP-301); CDV 80 μM
  Protection (%) Ave.: 56.740%
  Protection (%): 54.790% and 51.637% and 59.279% and 61.256%
Telomelysin (OBP-301); CDV 90 μM
  Protection (%) Ave.: 49.806%
  Protection (%): 51.423% and 50.514% and 50.942% and 46.346%
Telomelysin (OBP-301); CDV 100 μM
  Protection (%) Ave.: 38.090%
  Protection (%): 33.948% and 41.590% and 36.834% and 39.987%
Telomelysin (OBP-301); Telomelysin, A549 cells, XTT, read-out: EC50, CDV concentration that archive the protection to 50%
  EC50: 35.9 µM
H1299 cells; CDV 0.01 μM, Table 4A
  Relative cell viability Ave.: 1.014
  Relative cell viability: 0.978 and 1.068 and 1.002 and 1.009
H1299 cells; CDV 0.01 μM, Table 4B
  Relative cell viability Ave.: 0.992
  Relative cell viability: 0.970 and 1.010 and 0.999 and 0.990
H1299 cells; CDV 0.06 μM, Table 4A
  Relative cell viability Ave.: 0.996
  Relative cell viability: 0.945 and 1.070 and 0.997 and 0.972
H1299 cells; CDV 0.06 μM, Table 4B
  Relative cell viability Ave.: 0.985
  Relative cell viability: 0.950 and 1.019 and 0.990 and 0.981
H1299 cells; CDV 0.32 μM, Table 3A
  Relative cell viability Ave.: 1.074
  Relative cell viability: 0.963 and 1.073 and 1.171 and 1.087
H1299 cells; CDV 0.32 μM, Table 4A
  Relative cell viability Ave.: 1.020
  Relative cell viability: 0.977 and 1.068 and 1.001 and 1.032
H1299 cells; CDV 1.6 μM, Table 3A
  Relative cell viability Ave.: 1.017
  Relative cell viability: 0.970 and 1.043 and 1.110 and 0.945
H1299 cells; CDV 1.6 μM, Table 4A
  Relative cell viability Ave.: 1.030
  Relative cell viability: 0.981 and 1.061 and 1.044 and 1.033
H1299 cells; CDV 1.6 μM, Table 4B
  Relative cell viability Ave.: 0.990
  Relative cell viability: 0.984 and 0.996 and 0.983 and 0.997
H1299 cells; CDV 8 μM, Table 3A
  Relative cell viability Ave.: 1.010
  Relative cell viability: 0.912 and 1.037 and 1.043 and 1.047
H1299 cells; CDV 8 μM, Table 4A
  Relative cell viability Ave.: 0.989
  Relative cell viability: 0.918 and 1.022 and 1.016 and 0.999
H1299 cells; CDV 8 μM, Table 4B
  Relative cell viability Ave.: 0.925
  Relative cell viability: 0.913 and 0.935 and 0.928 and 0.923
H1299 cells; CDV 40 μM, Table 3A
  Relative cell viability Ave.: 0.923
  Relative cell viability: 1.004 and 0.919 and 0.876 and 0.894
H1299 cells; CDV 40 μM, Table 4A
  Relative cell viability Ave.: 0.695
  Relative cell viability: 0.709 and 0.677 and 0.686 and 0.706
H1299 cells; CDV 40 μM, Table 4B
  Relative cell viability Ave.: 0.600
  Relative cell viability: 0.588 and 0.574 and 0.628 and 0.609
H1299 cells; CDV 200 μM, Table 3A
  Relative cell viability Ave.: 0.398
  Relative cell viability: 0.401 and 0.420 and 0.362 and 0.411
H1299 cells; CDV 200 μM, Table 4A
  Relative cell viability Ave.: 0.199
  Relative cell viability: 0.221 and 0.203 and 0.185 and 0.186
H1299 cells; CDV 200 μM, Table 4B
  Relative cell viability Ave.: 0.136
  Relative cell viability: 0.135 and 0.128 and 0.145 and 0.134
H1299 cells; CDV 1000 μM, Table 4A
  Relative cell viability Ave.: 0.037
  Relative cell viability: 0.033 and 0.043 and 0.036 and 0.037
H1299 cells; CDV 1000 μM, Table 4B
  Relative cell viability Ave.: 0.015
  Relative cell viability: 0.021 and 0.013 and 0.012 and 0.015
H1299 cells; H1299 cells, high concentrations
  toxicity of CDV itself: toxic
[1]; CDV 0.16 μM
  E1A copy number, % (relative to 0 μM): 117.49%
  E1A copy number/ng DNA: 6.152E+07 copy number/ng DNA
[1]; CDV 0.8 μM
  E1A copy number, % (relative to 0 μM): 95.65%
  E1A copy number/ng DNA: 5.008E+07 copy number/ng DNA
[1]; CDV 4 μM
  E1A copy number, % (relative to 0 μM): 74.69%
  E1A copy number/ng DNA: 3.911E+07 copy number/ng DNA
[1]; CDV 20 μM
  E1A copy number, % (relative to 0 μM): 32.83%
  E1A copy number/ng DNA: 1.719E+07 copy number/ng DNA
[1]; CDV 100 μM
  E1A copy number, % (relative to 0 μM): 4.79%
  E1A copy number/ng DNA: 2.509E+06 copy number/ng DNA
[1]; wild-type AdV, H1299 cells, dose-dependent manner
  Viral E1A copy number: reduced
